Experimental data: publication PMC10914734 (Signal Transduction and Targeted Therapy, 2024)

Key:
[1] = tested on: Huh-7, Vero-E6, RD and 293T-ACE2-TMPRSS2 cell lines; assay: Cell Counting Kit-8 (CCK8) cytotoxicity assay; type: cell-based; settings: 293T-ACE2-TMPRSS2 cells
Method: Cell viability was performed in a 96-well plate with triplicate for each concentration. All compounds were diluted two times with nine gradients starting at 200, 250. or 500 micromoles in maintenance medium. After 48 h incubation, the supernatant was removed, and 10 μL WST-8 (2-(2-methoxy-4-nitrophenyl)-3-(4-nitrophenyl)-5-(2,4-disulfophenyl)-2H-tetrazolium sodium salt) in maintenance medium was added to the cells. After incubation at 37 °C for 2 h, the plates were measured at 450 nm using a spectrophotometer (BioTek), and cell viability was calculated. All compounds were diluted with maintenance medium containing 2%FBS of DMEM.

MERS-CoV PsV = assay: microbe, parasite or virus in culture; type: cell-based; settings: Middle East respiratory syndrome-related coronavirus, Huh-7, read-out: EC50, MERS-CoV PsV
SARS-CoV PsV = assay: microbe, parasite or virus in culture; type: cell-based; settings: Severe acute respiratory syndrome coronavirus, Huh-7, read-out: EC50, SARS-CoV PsV
Human CTSL = Human CTSL (Homo sapiens, UniProt P07711); assay: FRET-based cleavage assay, enzymatic inhibition of human CTSL
HCoV-229E PsV = assay: microbe, parasite or virus in culture; type: cell-based; settings: Human coronavirus 229E, Huh-7, read-out: EC50, HCoV-229E PsV
Human CTSD = Human CTSD (Homo sapiens, UniProt P07339); assay: Protease panel, CTSD inhibition; type: biochemical; settings: at a concentration of 20 μM; read-out: Inhibition rate, Human CTSD
Pharmacokinetics in rats = type: in vivo; settings: for AUC(0-inf): read-out: AUCINF_obs; for MRT inf: read-out: MRTINF_obs
SARS-CoV-2 PsV = assay: microbe, parasite or virus in culture; type: cell-based; settings: Severe acute respiratory syndrome coronavirus 2, 293T/ACE2, read-out: EC50, SARS-CoV-2 PsV
SARS-CoV-2 M^pro = SARS-CoV-2 M^pro (Severe acute respiratory syndrome coronavirus 2, UniProt P0DTD1); assay: biochemical
Human Chymotrypsin C = Human Chymotrypsin C (Homo sapiens, UniProt Q99895); assay: Protease panel, chymotrypsin C inhibition; type: biochemical; settings: at a concentration of 20 μM; read-out: Inhibition rate, Human Chymotrypsin C
[2] = tested on: LPS-induced acute pulmonary inflammation; assay: Mouse model of LPS-induced acute pulmonary inflammation; type: in vivo; settings: 100 mg/kg intraperitoneal, 24 h after LPS induction
Method: C57BL/6 mice were obtained from Beijing HFK Bioscience Co., Ltd. (Beijing, China). Animals 6–8 weeks of age were used for the studies and were maintained with free access to pellet food and water in plastic cages at 21 ± 2 °C and kept on a 12 h light/dark cycle. Mice were randomly divided into four groups, each group containing eight mice. The mice were intraperitoneally administered with 100 mg/kg of 14a or 100 mg/kg of 14b or vehicle control 1 h prior to LPS challenge. The compounds were dissolved in solvent containing 5% dimethyl sulfoxide, 5% ethanol, 40% polyethylene glycol 400 and 50% saline (volume ratio). The mice were anesthetized by Zoletil 50. Then mice in the normal group were intranasally inoculated with 20 μL normal saline, and mice in the LPS challenge group were intranasally inoculated with 20 μL (5 μg/μL) LPS to induce pneumonia. At 12 h post-induction, the mice were again intraperitoneally administered with 100 mg/kg of 14a or 100 mg/kg of 14b or vehicle control. Twenty-four hours later, mice were euthanized, and the lung tissues were harvested for further study.
RNA isolation, cDNA synthesis, and RT-qPCR. Total RNA was isolated from lung tissues using RNA extraction reagent (Vazyme, R401-01). cDNA was synthesized using the HiScript II Q RT SuperMix (Vazyme, R223-01), according to the manufacturer’s instructions. RT-qPCR was performed using ChamQ SYBR qPCR Master Mix (Vazyme, Q331-02) in the CFX96TM Real Time PCR Detection System (Bio-Rad, Shanghai, China). The profile of thermal cycling consisted of initial denaturation at 95 °C for 30 s, 40 cycles at 95 °C for 5 s and 60 °C for 30 s. All primer sequences used in this study are listed in Supplementary Table S5.
Hematoxylin and eosin (H&E) staining. Lung tissue samples were fixed in 4% paraformaldehyde and embedded in paraffin (Thermo Scientific, 8331). […] was sectioned (5 μm) for H&E staining, and the stained sections were analyzed by a pathologist using a light microscope (Olympus, Tokyo, Japan). Lung injury was evaluated based on histological features, including alveolar septal thickening and inflammatory cell infiltration.

SARS-CoV-2 PL^pro = SARS-CoV-2 PL^pro (Severe acute respiratory syndrome coronavirus 2, UniProt P0DTD1); assay: biochemical; type: biochemical; settings: at a concentration of 20 μM
Pharmacokinetics in mice = type: in vivo; settings: 14a; for AUC(0-inf): read-out: AUCINF_obs; for MRT inf: read-out: MRTINF_obs
[3] = male, SD, rat, plasma, ip, i.p. (5 mg/kg)
[4] = male, SD, rat, plasma, iv, i.v. (5 mg/kg)
[5] = male, SD, rat, plasma, po, p.o. (10 mg/kg)
[6] = male, ICR, mouse, plasma, ip, i.p. (5 mg/kg)
[7] = male, ICR, mouse, plasma, iv, i.v. (5 mg/kg)
[8] = male, ICR, mouse, plasma, po, p.o. (10 mg/kg)

Chain of Human Chymotrypsin C (Q99895 30-268): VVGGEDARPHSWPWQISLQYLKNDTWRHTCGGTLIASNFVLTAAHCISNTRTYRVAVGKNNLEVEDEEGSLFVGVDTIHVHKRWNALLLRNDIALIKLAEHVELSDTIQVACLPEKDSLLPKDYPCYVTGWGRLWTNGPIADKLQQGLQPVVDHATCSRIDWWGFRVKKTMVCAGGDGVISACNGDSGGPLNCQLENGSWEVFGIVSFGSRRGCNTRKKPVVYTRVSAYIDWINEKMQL
Chain of Human CTSD (P07339 65-412): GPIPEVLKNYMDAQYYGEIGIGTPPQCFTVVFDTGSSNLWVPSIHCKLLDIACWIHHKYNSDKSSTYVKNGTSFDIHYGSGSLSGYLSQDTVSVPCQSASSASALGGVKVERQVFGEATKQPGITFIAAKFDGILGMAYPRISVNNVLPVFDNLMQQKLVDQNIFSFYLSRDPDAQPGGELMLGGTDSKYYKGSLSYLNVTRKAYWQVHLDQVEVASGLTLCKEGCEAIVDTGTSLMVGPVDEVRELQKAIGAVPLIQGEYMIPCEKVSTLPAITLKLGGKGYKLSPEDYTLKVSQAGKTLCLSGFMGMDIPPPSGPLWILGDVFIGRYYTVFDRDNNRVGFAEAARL
Chain of Human CTSL (P07711 114-333): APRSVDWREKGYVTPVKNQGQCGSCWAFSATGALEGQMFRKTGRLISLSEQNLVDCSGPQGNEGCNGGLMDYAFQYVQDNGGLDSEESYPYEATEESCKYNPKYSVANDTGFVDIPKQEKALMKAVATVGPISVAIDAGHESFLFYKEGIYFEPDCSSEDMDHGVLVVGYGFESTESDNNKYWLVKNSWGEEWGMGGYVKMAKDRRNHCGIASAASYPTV

**Q.** What does the source list for `O=C(NCc1ccccc1)C(=O)[C@H](C[C@@H]1CCCNC1=O)NC(=O)[C@H](Cc1ccc(F)cc1)NC(=O)c1cc2ccccc2o1` [14a, N-((S)-1-(((S)-4-(benzylamino)-3,4-dioxo-1-((S)-2-oxopiperidin-3-yl)butan-2-yl)amino)-3-(4-fluorophenyl)-1-oxopropan-2-yl)benzofuran-2-carboxamide]?
**A.** Cytotoxicity [1]: very low or no cytotoxicity; EC50 (MERS-CoV PsV): 29.8 ± 5.72 nM; EC50 (SARS-CoV PsV): 8.24 ± 2.98 nM; IC50 (Human CTSL): 3.34 ± 0.52 nM; EC50 (HCoV-229E PsV): 18.8 ± 4.18 nM; inhibition (Human CTSD): 21 ± 1%; Vss_obs (Pharmacokinetics in rats; i.v. (5 mg/kg)): 1.3 ± 0.15 L/kg; AUC(0-t) (Pharmacokinetics in rats; [3]): 4760 ng·h/mL; Cmax (Pharmacokinetics in rats; [3]): 2080 ng/mL; Tmax (Pharmacokinetics in rats; [3]): 0.25 h; bioavailability (Pharmacokinetics in rats; [3]): 115%; half-life (Pharmacokinetics in rats; [3]): 4.14 h; AUC(0-inf) (Pharmacokinetics in rats; [3]): 4760 ng·h/mL; MRT inf (Pharmacokinetics in rats; [3]): 1.9 h; AUC(0-t) (Pharmacokinetics in rats; [4]): 4110 ± 756 ng·h/mL; clearance (Pharmacokinetics in rats; [4]): 20.6 ± 3.4 mL/min/kg; half-life (Pharmacokinetics in rats; [4]): 6 ± 0.75 h; AUC(0-inf) (Pharmacokinetics in rats; [4]): 4130 ± 756 ng·h/mL; MRT inf (Pharmacokinetics in rats; [4]): 1.08 ± 0.07 h; AUC(0-t) (Pharmacokinetics in rats; [5]): 1050 ± 276 ng·h/mL; Cmax (Pharmacokinetics in rats; [5]): 416 ng/mL; Tmax (Pharmacokinetics in rats; [5]): 0.75 ± 0.84 h; bioavailability (Pharmacokinetics in rats; [5]): 13%; half-life (Pharmacokinetics in rats; [5]): 2.52 h; AUC(0-inf) (Pharmacokinetics in rats; [5]): 1060 ng·h/mL; MRT inf (Pharmacokinetics in rats; [5]): 2.06 ± 0.49 h; EC50 (SARS-CoV-2 PsV): 3.33 ± 1.9 nM; IC50 (SARS-CoV-2 M^pro): 12600 nM; inhibition (Human Chymotrypsin C): -2 ± 1%; Lung histopathology (inflammatory cell infiltration, alveolar septal thickening) compared with vehicle-treated mice [2]: reduced inflammatory cell infiltration and alveolar septal thickening; Expression levels of inflammatory cytokines (IL-1β, IL-6, TNFα) and chemokines (CCL3, CSF3, CXCL10) in the lung tissues ([2]; mice): reduced; Inhibitory activity against papain-like protease (PL^pro) (in words) (SARS-CoV-2 PL^pro): no inhibitory activity; inhibition at 20 µM (SARS-CoV-2 PL^pro; read-out: Inhibition rate, SARS-CoV-2 PL^pro): 3 ± 2%; Vss_obs (Pharmacokinetics in mice; i.v. (5 mg/kg)): 9.5 L/kg; AUC(0-t) (Pharmacokinetics in mice; [6]): 1260 ng·h/mL; Cmax (Pharmacokinetics in mice; [6]): 1120 ng/mL; Tmax (Pharmacokinetics in mice; [6]): 0.25 h; bioavailability (Pharmacokinetics in mice; [6]): 101%; half-life (Pharmacokinetics in mice; [6]): 7.01 h; AUC(0-inf) (Pharmacokinetics in mice; [6]): 1270 ng·h/mL; MRT inf (Pharmacokinetics in mice; [6]): 1.82 h; AUC (Pharmacokinetics in mice; male, ICR, mouse, plasma, ip, intraperitoneal (10 mg/kg) as printed in the text, read-out: area under the curve (AUC)): 1270 ng·h/mL; AUC(0-t) (Pharmacokinetics in mice; [7]): 1220 ng·h/mL; clearance (Pharmacokinetics in mice; [7]): 66 mL/min/kg; half-life (Pharmacokinetics in mice; [7]): 18.5 h; AUC(0-inf) (Pharmacokinetics in mice; [7]): 1260 ng·h/mL; MRT inf (Pharmacokinetics in mice; [7]): 2.4 h; AUC(0-t) (Pharmacokinetics in mice; [8]): 125 ng·h/mL; Cmax (Pharmacokinetics in mice; [8]): 124 ng/mL; Tmax (Pharmacokinetics in mice; [8]): 0.25 h; bioavailability (Pharmacokinetics in mice; [8]): 5%; half-life (Pharmacokinetics in mice; [8]): 1.09 h; AUC(0-inf) (Pharmacokinetics in mice; [8]): 126 ng·h/mL; MRT inf (Pharmacokinetics in mice; [8]): 1.09 h
